From patent US10344060B2 (priority 2013, dated 2019)
Read-outs that look alike come from different tables or passages of the source.

Tests used:
Experiment in all cases: cell-based
hNav1.3 = hNav1.3 (Homo sapiens, UniProt Q9NY46); settings: IonWorks Quattro, read-out: IC50 (μM) Nav1.3
hNav1.7 = hNav1.7 (Homo sapiens, UniProt Q15858); settings: read-out: IC50 (μM) Nav1.7
hNav1.4 = hNav1.4 (Homo sapiens, UniProt P35499); assay type: cell-based; settings: for IC50: IonWorks Quattro, read-out: IC50 (μM) Nav1.4; for Nav1.4/Nav1.7: ratio of IonWorks Quattro IC50 values
Chain of hNav1.4 (P35499 whole entry): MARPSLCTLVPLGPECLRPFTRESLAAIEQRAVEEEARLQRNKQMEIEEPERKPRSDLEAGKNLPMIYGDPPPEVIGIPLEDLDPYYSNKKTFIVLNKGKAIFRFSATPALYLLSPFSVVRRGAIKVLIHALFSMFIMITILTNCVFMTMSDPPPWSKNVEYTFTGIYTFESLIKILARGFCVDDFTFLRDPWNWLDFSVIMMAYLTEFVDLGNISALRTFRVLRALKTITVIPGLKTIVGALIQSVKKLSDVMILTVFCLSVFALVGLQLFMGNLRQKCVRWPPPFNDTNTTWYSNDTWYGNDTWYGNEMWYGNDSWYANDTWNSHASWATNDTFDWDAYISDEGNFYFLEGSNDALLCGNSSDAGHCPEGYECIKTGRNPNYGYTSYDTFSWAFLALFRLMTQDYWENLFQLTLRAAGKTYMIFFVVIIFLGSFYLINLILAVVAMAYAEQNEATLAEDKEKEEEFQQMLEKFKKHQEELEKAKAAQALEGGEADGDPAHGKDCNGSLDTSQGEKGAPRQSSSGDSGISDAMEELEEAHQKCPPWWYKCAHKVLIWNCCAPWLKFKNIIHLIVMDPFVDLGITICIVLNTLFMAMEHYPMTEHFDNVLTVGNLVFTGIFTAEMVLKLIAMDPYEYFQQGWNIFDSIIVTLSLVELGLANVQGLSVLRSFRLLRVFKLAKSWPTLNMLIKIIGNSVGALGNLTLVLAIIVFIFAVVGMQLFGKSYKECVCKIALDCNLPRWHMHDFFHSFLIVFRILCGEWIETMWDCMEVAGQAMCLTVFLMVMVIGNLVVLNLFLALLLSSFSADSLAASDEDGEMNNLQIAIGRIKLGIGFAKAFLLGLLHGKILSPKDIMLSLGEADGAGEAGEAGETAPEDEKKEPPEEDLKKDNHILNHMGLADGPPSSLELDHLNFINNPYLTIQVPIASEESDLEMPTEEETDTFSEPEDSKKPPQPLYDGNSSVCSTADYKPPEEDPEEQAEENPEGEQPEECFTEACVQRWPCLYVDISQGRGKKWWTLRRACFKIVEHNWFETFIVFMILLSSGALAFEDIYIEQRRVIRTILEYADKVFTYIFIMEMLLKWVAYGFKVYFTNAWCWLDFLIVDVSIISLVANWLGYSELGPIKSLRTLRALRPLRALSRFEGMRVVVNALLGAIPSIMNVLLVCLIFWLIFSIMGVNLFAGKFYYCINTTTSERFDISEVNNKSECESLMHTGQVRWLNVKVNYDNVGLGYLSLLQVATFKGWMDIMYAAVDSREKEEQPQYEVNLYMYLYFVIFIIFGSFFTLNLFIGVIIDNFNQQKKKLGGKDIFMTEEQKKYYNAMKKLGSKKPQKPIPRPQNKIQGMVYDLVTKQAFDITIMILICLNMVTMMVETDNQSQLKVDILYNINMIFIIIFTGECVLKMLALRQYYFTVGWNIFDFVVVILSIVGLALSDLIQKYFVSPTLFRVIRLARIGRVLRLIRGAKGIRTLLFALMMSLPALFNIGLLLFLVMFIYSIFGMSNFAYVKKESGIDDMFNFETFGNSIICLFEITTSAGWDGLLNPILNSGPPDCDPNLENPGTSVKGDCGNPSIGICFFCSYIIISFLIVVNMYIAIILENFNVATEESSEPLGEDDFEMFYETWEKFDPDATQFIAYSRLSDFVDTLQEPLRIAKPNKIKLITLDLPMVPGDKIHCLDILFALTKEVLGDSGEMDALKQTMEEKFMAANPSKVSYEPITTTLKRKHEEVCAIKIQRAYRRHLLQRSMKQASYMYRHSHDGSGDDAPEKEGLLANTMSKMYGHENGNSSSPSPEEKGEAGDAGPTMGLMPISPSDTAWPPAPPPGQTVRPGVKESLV

hNav1.5 = hNav1.5 (Homo sapiens, UniProt Q14524); settings: IonWorks Quattro, read-out: IC50 (μM) Nav1.5

Chain of hNav1.7 (Q15858 whole entry): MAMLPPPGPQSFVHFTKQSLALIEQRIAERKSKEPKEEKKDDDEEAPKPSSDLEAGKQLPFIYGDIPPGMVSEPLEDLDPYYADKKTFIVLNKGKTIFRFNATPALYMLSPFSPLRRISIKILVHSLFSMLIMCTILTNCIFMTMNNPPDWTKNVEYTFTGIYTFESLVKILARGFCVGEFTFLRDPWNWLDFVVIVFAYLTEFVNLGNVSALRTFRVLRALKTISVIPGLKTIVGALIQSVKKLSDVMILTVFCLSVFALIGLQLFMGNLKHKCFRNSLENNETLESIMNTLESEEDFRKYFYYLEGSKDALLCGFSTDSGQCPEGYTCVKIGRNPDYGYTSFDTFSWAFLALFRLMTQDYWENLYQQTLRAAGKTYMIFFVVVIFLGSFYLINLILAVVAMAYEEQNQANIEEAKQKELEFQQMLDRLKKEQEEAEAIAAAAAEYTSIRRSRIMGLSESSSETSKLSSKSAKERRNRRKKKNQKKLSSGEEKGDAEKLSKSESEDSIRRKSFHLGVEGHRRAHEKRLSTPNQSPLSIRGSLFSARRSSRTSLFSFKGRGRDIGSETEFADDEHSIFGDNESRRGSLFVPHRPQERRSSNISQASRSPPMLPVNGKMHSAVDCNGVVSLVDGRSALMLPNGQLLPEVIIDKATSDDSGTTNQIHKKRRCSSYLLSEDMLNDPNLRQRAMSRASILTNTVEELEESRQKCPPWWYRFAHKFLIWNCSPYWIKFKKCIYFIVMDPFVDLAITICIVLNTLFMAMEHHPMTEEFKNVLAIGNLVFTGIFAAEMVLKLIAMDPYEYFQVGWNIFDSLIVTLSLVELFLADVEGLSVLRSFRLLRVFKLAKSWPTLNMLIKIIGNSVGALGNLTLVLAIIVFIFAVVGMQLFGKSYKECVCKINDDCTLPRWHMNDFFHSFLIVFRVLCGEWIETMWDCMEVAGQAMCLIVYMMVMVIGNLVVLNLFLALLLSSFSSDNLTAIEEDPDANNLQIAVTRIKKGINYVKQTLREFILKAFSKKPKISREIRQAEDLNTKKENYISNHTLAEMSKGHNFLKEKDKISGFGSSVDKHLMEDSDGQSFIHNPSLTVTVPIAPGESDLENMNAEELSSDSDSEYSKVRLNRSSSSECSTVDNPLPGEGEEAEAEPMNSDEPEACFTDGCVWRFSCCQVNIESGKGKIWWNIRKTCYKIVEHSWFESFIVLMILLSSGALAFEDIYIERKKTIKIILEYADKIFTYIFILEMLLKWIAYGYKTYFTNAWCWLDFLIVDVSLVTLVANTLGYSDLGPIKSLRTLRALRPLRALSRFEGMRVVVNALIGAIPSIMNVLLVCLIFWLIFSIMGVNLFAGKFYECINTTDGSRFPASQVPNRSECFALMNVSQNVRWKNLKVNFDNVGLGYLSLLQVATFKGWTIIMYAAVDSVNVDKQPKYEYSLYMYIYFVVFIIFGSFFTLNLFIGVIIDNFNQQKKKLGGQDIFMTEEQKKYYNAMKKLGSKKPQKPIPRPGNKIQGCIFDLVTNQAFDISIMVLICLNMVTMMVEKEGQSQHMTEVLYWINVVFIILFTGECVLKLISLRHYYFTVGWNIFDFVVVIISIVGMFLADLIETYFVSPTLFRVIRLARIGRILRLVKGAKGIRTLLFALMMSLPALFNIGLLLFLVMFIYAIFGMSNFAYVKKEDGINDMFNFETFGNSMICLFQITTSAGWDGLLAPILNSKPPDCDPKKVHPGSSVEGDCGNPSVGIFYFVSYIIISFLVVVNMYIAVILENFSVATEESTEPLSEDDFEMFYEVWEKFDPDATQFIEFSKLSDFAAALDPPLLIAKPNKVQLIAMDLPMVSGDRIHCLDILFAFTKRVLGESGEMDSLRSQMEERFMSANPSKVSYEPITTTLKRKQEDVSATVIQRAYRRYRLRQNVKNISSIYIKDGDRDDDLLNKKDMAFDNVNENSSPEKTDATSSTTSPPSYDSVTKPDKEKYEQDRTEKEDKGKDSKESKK

SMILES	IC50 (hNav1.3; Table 6) [µM]	IC50 (hNav1.7) [µM]	IC50 (hNav1.4; Table 6) [µM]	Nav1.4/Nav1.7 (hNav1.4; Table 6)	IC50 (hNav1.5; Table 6) [µM]	IC50 (hNav1.3; Table 9) [µM]	IC50 (hNav1.7; IonWorks Quattro, […]) [µM]	IC50 (hNav1.4; Table 9) [µM]	IC50 (hNav1.5; Table 9) [µM]
CC[C@H](C)[C@H](NC(=O)[C@@H](NC(=O)[C@H](CCCCN)NC(=O)[C@H](CCCNC(=N)N)NC(=O)[C@@H]1CSSC[C@@H]2NC(=O)[C@H](C)NC(=O)[C@H](CCCNC(=N)N)NC(=O)[C@H](CCCCN)NC(=O)[C@H](CO)NC(=O)[C@H](CC(=O)O)NC(=O)[C@@H]3CSSC[C@H](NC(=O)[C@H](CCCNC(=N)N)NC(=O)[C@H](CC(C)C)NC(=O)CNC(=O)[C@H](CCC(=O)O)NC(=O)[C@H](CSSC[C@H](NC(=O)[C@@H](N)Cc4ccc(O)cc4)C(=O)N[C@@H](CCC(N)=O)C(=O)N[C@@H](CCCCN)C(=O)N[C@@H](Cc4c[nH]c5ccccc45)C(=O)N[C@@H](CCSC)C(=O)N[C@@H](Cc4c[nH]c5ccccc45)C(=O)N[C@@H]([C@@H](C)O)C(=O)N3)NC2=O)C(=O)N[C@@H](C)C(=O)N[C@@H](CC(C)C)C(=O)N[C@@H](Cc2c[nH]c3ccccc23)C(=O)N1)[C@@H](C)CC)C(N)=O [compound 18]	0.52	0.062	0.41	7	> 5	–	–	–	–
CC[C@H](C)[C@H](NC(=O)[C@@H](NC(=O)[C@H](CCCCN)NC(=O)[C@H](CCCNC(=N)N)NC(=O)[C@@H]1CSSC[C@@H]2NC(=O)[C@H](C)NC(=O)[C@H](CCCNC(=N)N)NC(=O)[C@H](CCCCN)NC(=O)[C@H](CO)NC(=O)[C@H](CC(=O)O)NC(=O)[C@@H]3CSSC[C@H](NC(=O)[C@H](CCCNC(=N)N)NC(=O)[C@H](CC(C)C)NC(=O)CNC(=O)[C@H](CCC(=O)O)NC(=O)[C@H](CSSC[C@H](NC(=O)[C@@H](N)Cc4ccc(O)cc4)C(=O)N[C@@H](CCC(N)=O)C(=O)N[C@@H](CCCCN)C(=O)N[C@@H](Cc4c[nH]c5ccccc45)C(=O)N[C@@H](CCSC)C(=O)N[C@@H](CCCCN)C(=O)N[C@@H]([C@@H](C)O)C(=O)N3)NC2=O)C(=O)N[C@@H](CCCCN)C(=O)N[C@@H](CC(C)C)C(=O)N[C@@H](Cc2c[nH]c3ccccc23)C(=O)N1)[C@@H](C)CC)C(N)=O [compound 75]	0.31	0.08	0.43	5	> 5	–	–	–	–
CC[C@H](C)[C@H](NC(=O)[C@@H](NC(=O)[C@H](CCCNC(=N)N)NC(=O)[C@H](CCCNC(=N)N)NC(=O)[C@@H]1CSSC[C@@H]2NC(=O)[C@H](C)NC(=O)[C@H](CCCNC(=N)N)NC(=O)[C@H](CCCCN)NC(=O)[C@H](CO)NC(=O)[C@H](CC(=O)O)NC(=O)[C@@H]3CSSC[C@H](NC(=O)[C@H](CCCNC(=N)N)NC(=O)[C@H](CC(C)C)NC(=O)CNC(=O)[C@H](CCC(=O)O)NC(=O)[C@H](CSSC[C@H](NC(=O)[C@@H](N)Cc4ccc(O)cc4)C(=O)N[C@@H](CCC(N)=O)C(=O)N[C@@H](CCCCN)C(=O)N[C@@H](Cc4c[nH]c5ccccc45)C(=O)N[C@@H](CCSC)C(=O)N[C@@H](Cc4c[nH]c5ccccc45)C(=O)N[C@@H]([C@@H](C)O)C(=O)N3)NC2=O)C(=O)N[C@@H](CCCCN)C(=O)N[C@@H](CC(C)C)C(=O)N[C@@H](Cc2c[nH]c3ccccc23)C(=O)N1)[C@@H](C)CC)C(N)=O [compound 107]	0.1	0.028	0.23	8	> 5	–	–	–	–
CCCC[C@@H]1NC(=O)[C@H](Cc2c[nH]c3ccccc23)NC(=O)[C@H](CCCCN)NC(=O)[C@H](CCC(N)=O)NC(=O)[C@@H](NC(=O)[C@@H](N)Cc2ccc(O)cc2)CSSC[C@@H]2NC(=O)[C@@H]3CSSC[C@@H](C(=O)N[C@@H](CCCNC(=N)N)C(=O)N[C@@H](CCCCN)C(=O)N[C@H](C(=O)N[C@H](C(N)=O)[C@@H](C)CC)[C@@H](C)CC)NC(=O)[C@H](Cc4c[nH]c5ccccc45)NC(=O)[C@H](CC(C)C)NC(=O)[C@H](CCCCN)NC(=O)[C@H](CSSC[C@H](NC(=O)[C@H]([C@@H](C)O)NC(=O)[C@H](Cc4cn(CCCOCCOCCOCCOCCOCCOCCOCCOCCOCCOCCN)nn4)NC1=O)C(=O)N[C@@H](CC(=O)O)C(=O)N[C@@H](CO)C(=O)N[C@@H](CCCCN)C(=O)N[C@@H](CCCNC(=N)N)C(=O)N[C@@H](C)C(=O)N3)NC(=O)[C@H](CCCNC(=N)N)NC(=O)[C@H](CC(C)C)NC(=O)CNC(=O)[C@H](CCC(=O)O)NC2=O [compound 253]	–	–	–	–	–	> 7	4.6	> 7	> 7
CC[C@H](C)[C@H](NC(=O)[C@@H](NC(=O)[C@H](CCCCN)NC(=O)[C@H](CCCNC(=N)N)NC(=O)[C@@H]1CSSC[C@@H]2NC(=O)[C@H](C)NC(=O)[C@H](CCCCN)NC(=O)[C@H](CCCCN)NC(=O)[C@H](CO)NC(=O)[C@H](CC(=O)O)NC(=O)[C@@H]3CSSC[C@H](NC(=O)[C@H](CCCNC(=N)N)NC(=O)[C@H](CC(C)C)NC(=O)CNC(=O)[C@H](CCC(=O)O)NC(=O)[C@H](CSSC[C@H](NC(=O)[C@@H](N)Cc4ccc(O)cc4)C(=O)N[C@@H](CCC(N)=O)C(=O)N[C@@H](CCCCN)C(=O)N[C@@H](Cc4c[nH]c5ccccc45)C(=O)N[C@@H](CCSC)C(=O)N[C@@H](Cc4c[nH]c5ccccc45)C(=O)N[C@@H]([C@@H](C)O)C(=O)N3)NC2=O)C(=O)N[C@@H](CCCCN)C(=O)N[C@@H](CC(C)C)C(=O)N[C@@H](Cc2c[nH]c3ccccc23)C(=O)N1)[C@@H](C)CC)C(N)=O [compound 79]	0.12	0.064	0.47	7	> 5	–	–	–	–
CC[C@H](C)[C@H](NC(=O)[C@H](Cc1cccc2ccccc12)NC(=O)[C@H](CCCCN)NC(=O)[C@H](CCCNC(=N)N)NC(=O)[C@@H]1CSSC[C@@H]2NC(=O)[C@H](C)NC(=O)[C@H](CCCNC(=N)N)NC(=O)[C@H](CCCCN)NC(=O)[C@H](CO)NC(=O)[C@H](CC(=O)O)NC(=O)[C@@H]3CSSC[C@H](NC(=O)[C@H](CCCNC(=N)N)NC(=O)[C@H](CC(C)C)NC(=O)CNC(=O)[C@H](CCC(=O)O)NC(=O)[C@H](CSSC[C@H](NC(=O)[C@@H](N)Cc4ccc(O)cc4)C(=O)N[C@@H](CCC(N)=O)C(=O)N[C@@H](CCCCN)C(=O)N[C@@H](Cc4c[nH]c5ccccc45)C(=O)N[C@@H](CCSC)C(=O)N[C@@H](Cc4c[nH]c5ccccc45)C(=O)N[C@@H]([C@@H](C)O)C(=O)N3)NC2=O)C(=O)N[C@@H](CCCCN)C(=O)N[C@@H](CC(C)C)C(=O)N[C@@H](Cc2c[nH]c3ccccc23)C(=O)N1)C(N)=O [compound 46]	0.06	0.006	0.1	17	3.6	–	–	–	–
CC[C@H](C)[C@H](NC(=O)[C@@H](NC(=O)[C@H](CCCCN)NC(=O)[C@H](CCCNC(=N)N)NC(=O)[C@@H]1CSSC[C@@H]2NC(=O)[C@H](C)NC(=O)[C@H](CCCNC(=N)N)NC(=O)[C@H](CCCCN)NC(=O)[C@H](CO)NC(=O)[C@H](CC(=O)O)NC(=O)[C@@H]3CSSC[C@H](NC(=O)[C@H](CCCNC(=N)N)NC(=O)[C@H](CC(C)C)NC(=O)CNC(=O)[C@H](CCC(=O)O)NC(=O)[C@H](CSSC[C@H](NC(=O)[C@@H](N)Cc4ccc(O)cc4)C(=O)N[C@@H](CCC(N)=O)C(=O)N[C@@H](CCCCN)C(=O)N[C@@H](Cc4c[nH]c5ccccc45)C(=O)N[C@@H](CCSC)C(=O)N[C@@H](CCCNC(=N)N)C(=O)N[C@@H]([C@@H](C)O)C(=O)N3)NC2=O)C(=O)N[C@@H](CCCCN)C(=O)N[C@@H](CC(C)C)C(=O)N[C@@H](Cc2c[nH]c3ccccc23)C(=O)N1)[C@@H](C)CC)C(N)=O [compound 95]	0.08	0.053	0.4	8	> 5	–	–	–	–
CC[C@H](C)[C@H](NC(=O)[C@@H](NC(=O)[C@H](CCCCN)NC(=O)[C@H](CCCNC(=N)N)NC(=O)[C@@H]1CSSC[C@@H]2NC(=O)[C@H](C)NC(=O)[C@H](CCCNC(=N)N)NC(=O)[C@H](C)NC(=O)[C@H](CO)NC(=O)[C@H](CC(=O)O)NC(=O)[C@@H]3CSSC[C@H](NC(=O)[C@H](CCCNC(=N)N)NC(=O)[C@H](CC(C)C)NC(=O)CNC(=O)[C@H](CCC(=O)O)NC(=O)[C@H](CSSC[C@H](NC(=O)[C@@H](N)Cc4ccc(O)cc4)C(=O)N[C@@H](CCC(N)=O)C(=O)N[C@@H](CCCCN)C(=O)N[C@@H](Cc4c[nH]c5ccccc45)C(=O)N[C@@H](CCSC)C(=O)N[C@@H](Cc4c[nH]c5ccccc45)C(=O)N[C@@H]([C@@H](C)O)C(=O)N3)NC2=O)C(=O)N[C@@H](CCCCN)C(=O)N[C@@H](CC(C)C)C(=O)N[C@@H](Cc2c[nH]c3ccccc23)C(=O)N1)[C@@H](C)CC)C(N)=O [compound 12]	0.15	0.022	0.26	12	> 5	–	–	–	–
CC[C@H](C)[C@H](NC(=O)[C@@H](NC(=O)[C@H](CCCCN)NC(=O)[C@H](CCCNC(=N)N)NC(=O)[C@@H]1CSSC[C@@H]2NC(=O)[C@H](C)NC(=O)[C@H](CCCNC(=N)N)NC(=O)[C@H](CCCCN)NC(=O)[C@H](CO)NC(=O)[C@H](CC(=O)O)NC(=O)[C@@H]3CSSC[C@H](NC(=O)[C@H](CCCNC(=N)N)NC(=O)[C@H](CC(C)C)NC(=O)CNC(=O)[C@H](CCC(=O)O)NC(=O)[C@H](CSSC[C@H](NC(=O)[C@@H](N)Cc4ccc(O)cc4)C(=O)N[C@@H](CCC(N)=O)C(=O)N[C@@H](CCCCN)C(=O)N[C@@H](Cc4c[nH]c5ccccc45)C(=O)N[C@@H](CCSC)C(=O)N[C@@H](Cc4c[nH]c5ccccc45)C(=O)N[C@@H]([C@@H](C)O)C(=O)N3)NC2=O)C(=O)N[C@@H](CCCCN)C(=O)N[C@@H](CC(C)C)C(=O)N[C@@H](CCCNC(=N)N)C(=O)N1)[C@@H](C)CC)C(N)=O [compound 106]	4.8	5	2.5	1	> 5	–	–	–	–
